The values below come from patent USRE44599E1, “Quinazolinones as inhibitors of human phosphatidylinositol 3-kinase delta” (ICOS Corporation, priority 2004, dated 2013).

One assay relates to osteoclasts. As to the kind of experiment: Osteoclast function (pit depths on dentine slices). The assay is classed as cell-based, mouse. The conditions noted are these: PI3K inhibitors 100 nM, 72 hr. How it is done:
To analyze the effect of the present PI3Kδ inhibitor compounds on osteoclasts, mouse bone marrow cells are isolated and differentiated to osteoclasts by treating the cells with Macrophage Colony Stimulating Factor^−1 (mCSF^−1) and Osteoprotegerin Ligand (OPGL) in serum-containing medium (αMEM with 10% heat-inactivated FBS; Sigma) for 3 days. On day four, when the osteoclasts had developed, the medium is removed and cells are harvested. The osteoclasts are plated on dentine slices at 10^5 cells/well in growth medium, i.e., αMEM containing 1% serum and 2% BSA with […] OPGL and 10 ng/mL mCSF^−1. After 3 hr, the medium is changed to 1% serum and 1% BSA, with or without osteopontin (25 μg/mL) and the PI3K inhibitors (100 nM). The medium is changed every 24 hours with fresh osteopontin and the inhibitors. At 72 hr, the medium is removed, and the dentine surfaces are washed with water to remove cell debris and stained with acid hematoxylin. Excess stain is washed and the pit depths are quantitated using confocal microscopy.

Assay [1] deals with neutrophil. Conditions: cited from earlier work.
The test system of assay [2] is neutrophil. The conditions noted are these: cited from earlier work. The source holds these as a separate data set.
The next assay concerns Class I PI 3-kinases. Conditions: read-out: IC50 against each of the various Class I PI 3-kinases; cited from earlier work.

pIC50: −log10 of the molar value.

As to `O=c1cc(N2CCOCC2)oc2c(-c3ccccc3)cccc12` [LY294002], in the assay on osteoclasts, the osteoclast activity entry is reported as “inhibited osteoclast activity”. The neutrophil migration entry with neutrophil [1] is “block neutrophil migration”. The superoxide release entry with neutrophil [2] is “block neutrophil migration and superoxide release”.
A word on the pIC50: it is the IC50 on a negative log10 scale, so that one unit is a factor of ten. With `COC[C@H]1OC(=O)c2coc3c2[C@@]1(C)C1=C(C3=O)[C@@H]2CCC(=O)[C@@]2(C)C[C@H]1OC(C)=O` [wortmannin], the osteoclast activity result in the assay with osteoclasts is listed as “inhibited osteoclast activity”. The negative logarithm of the IC50 (pIC50) in the assay with Class I PI 3-kinases is 8.00 to 9.00. Further, in the assay with neutrophil [1], the neutrophil migration entry was “block neutrophil migration”. The superoxide release entry in the assay on neutrophil [2] was “block neutrophil migration and superoxide release”.
